Columns and labels:
Format in all cases: in vivo
Parameters in all cases: key: 5=81-100%; 4=61-80%; 3=41-60%; 2=21-40%; 1=1-20%; 0=no damage to the plant; -=not tested
Setaria faberi (SETFA) [1] = experiment: Post-emergence test, herbicidal damage; conditions: sprayed after 8 days cultivation, 1000 g/ha unless otherwise stated, evaluated after 13 days, five-point scale
Description: (§1) Seeds of a variety of test species are sown in standard soil in pots Amaranthus palmeri (AMAPA), (Amaranthus retoflexus (AMARE), Echinochloa crus-galli (ECHCG), Zea mays (ZEAMX), Ipomoea 5 hederacea (IPOHE), and Setaria faberi (SETFA). After 8 days cultivation under controlled conditions in a glasshouse (at 24° C./16° C., day/night; 14 hours light; 65% humidity), the plants are sprayed with an aqueous spray solution derived from the formulation of the technical active ingredient in acetone/water (50:50) solution containing 0.5% Tween 20 (polyoxyethelyene sorbitan monolaurate, CAS RN 9005-64-5). Compounds are applied at 1000 g/ha unless otherwise stated. The test plants are then grown in a glasshouse under controlled conditions in a glasshouse (at 24° C./16° C., day/night; 14 hours light; 65% humidity) and watered twice daily. After 13 days the test is evaluated for the percentage damage caused to the plant. The biological activities are shown in the following table on a five-point scale (5=81-100%; 4=61-80%; 3=41-60%; 2=21-40%; 1=1-20%; 0=no damage to the plant; -=not tested).

[2] = test system: Echinochloa crus-galli (ECHCG); experiment: Post-emergence test, herbicidal damage; conditions: sprayed after 8 days cultivation, 1000 g/ha unless otherwise stated, evaluated after 13 days, five-point scale
Description: as §1

Zea mays (ZEAMX) [3] = experiment: Post-emergence test, herbicidal damage; conditions: sprayed after 8 days cultivation, 1000 g/ha unless otherwise stated, evaluated after 13 days, five-point scale
Description: as §1

[4] = test system: Amaranthus palmeri (AMAPA); experiment: Post-emergence test, herbicidal damage; conditions: sprayed after 8 days cultivation, 1000 g/ha unless otherwise stated, evaluated after 13 days, five-point scale
Description: as §1

[5] = test system: Amaranthus retoflexus (AMARE); experiment: Post-emergence test, herbicidal damage; conditions: sprayed after 8 days cultivation, 1000 g/ha unless otherwise stated, evaluated after 13 days, five-point scale
Description: as §1

[6] = test system: Ipomoea hederacea (IPOHE); experiment: Post-emergence test, herbicidal damage; conditions: sprayed after 8 days cultivation, 1000 g/ha unless otherwise stated, evaluated after 13 days, five-point scale
Description: as §1

Zea mays (ZEAMX) [7] = experiment: Pre-emergence test, herbicidal damage; conditions: 1000 g/ha unless otherwise stated, evaluated after 13 days, five-point scale
[8] = test system: Amaranthus palmeri (AMAPA); experiment: Pre-emergence test, herbicidal damage; conditions: 1000 g/ha unless otherwise stated, evaluated after 13 days, five-point scale
[9] = test system: Echinochloa crus-galli (ECHCG); experiment: Pre-emergence test, herbicidal damage; conditions: 1000 g/ha unless otherwise stated, evaluated after 13 days, five-point scale
[10] = test system: Ipomoea hederacea (IPOHE); experiment: Pre-emergence test, herbicidal damage; conditions: 1000 g/ha unless otherwise stated, evaluated after 13 days, five-point scale
[11] = test system: Amaranthus retoflexus (AMARE); experiment: Pre-emergence test, herbicidal damage; conditions: 1000 g/ha unless otherwise stated, evaluated after 13 days, five-point scale
Setaria faberi (SETFA) [12] = experiment: Pre-emergence test, herbicidal damage; conditions: 1000 g/ha unless otherwise stated, evaluated after 13 days, five-point scale

| Structure (SMILES) | percentage damage caused to the plant, SEFTA (Setaria faberi (SETFA) [1]) | percentage damage caused to the plant, ECHCG [2] | percentage damage caused to the plant, ZEAMX (Zea mays (ZEAMX) [3]) | percentage damage caused to the plant, AMAPA [4] | percentage damage caused to the plant, AMARE [5] | percentage damage caused to the plant, IPOHE [6] | percentage damage caused to the plant, ZEAMX (Zea mays (ZEAMX) [7]) | percentage damage caused to the plant, AMAPA [8] | percentage damage caused to the plant, ECHCG [9] | percentage damage caused to the plant, IPOHE [10] | percentage damage caused to the plant, AMARE [11] | percentage damage caused to the plant, SEFTA (Setaria faberi (SETFA) [12]) |
| --- | --- | --- | --- | --- | --- | --- | --- | --- | --- | --- | --- | --- |
| Cc1cc(-c2ccc(Cl)c(Cl)c2)c(C(=O)O)c(=O)[nH]1 [Compound 7, 4-(3,4-dichlorophenyl)-6-methyl-2-oxo-1H-pyridine-3-carboxylic acid] | 0 | 0 | 0 | 0 | 0 | 0 | 0 | 0 | 0 | 0 | 0 | 0 |
| C=Cc1c(C)[nH]c(=O)c(C(=O)O)c1-c1ccc(Cl)c(Cl)c1 [Compound 8, 4-(3,4-dichlorophenyl)-6-methyl-2-oxo-5-vinyl-1H-pyridine-3-carboxylic acid] | 1 (1=1-20%) | 1 (1=1-20%) | 1 (1=1-20%) | 1 (1=1-20%) | 1 (1=1-20%) | 1 (1=1-20%) | 0 | 1 (1=1-20%) | 0 | 0 | 0 | 0 |
| Cc1[nH]c(=O)c(C(=O)O)c(-c2ccc(Cl)c(Cl)c2)c1C [Compound 9, 4-(3,4-dichlorophenyl)-5,6-dimethyl-2-oxo-1H-pyridine-3-carboxylic acid] | 0 | 0 | 0 | 1 (1=1-20%) | 1 (1=1-20%) | 1 (1=1-20%) | 0 | 0 | 0 | 0 | 0 | 0 |
| CCc1c(C)[nH]c(=O)c(C(=O)O)c1-c1ccc(Cl)c(Cl)c1 [Compound 10, 4-(3,4-dichlorophenyl)-5-ethyl-6-methyl-2-oxo-1H-pyridine-3-carboxylic acid] | 0 | 0 | 0 | 0 | 0 | 0 | 0 | 0 | 0 | 0 | 0 | 0 |
| Cc1[nH]c(=O)c(C(=O)O)c(-c2ccc(Cl)c(Cl)c2)c1C#N [Compound 11, 5-cyano-4-(3,4-dichlorophenyl)-6-methyl-2-oxo-1H-pyridine-3-carboxylic acid] | 0 | 0 | 0 | 0 | 0 | 0 | 0 | 0 | 0 | 0 | 0 | 0 |
| Cc1c(-c2ccc(Cl)c(Cl)c2)c(C(=O)O)c(=O)n(C)c1C [Compound 12, 4-(3,4-dichlorophenyl)-1,5,6-trimethyl-2-oxo-pyridine-3-carboxylic acid] | 1 (1=1-20%) | 1 (1=1-20%) | 0 | 2 (2=21-40%) | 1 (1=1-20%) | 1 (1=1-20%) | 0 | 1 (1=1-20%) | 1 (1=1-20%) | 0 | 0 | 2 (2=21-40%) |
| Cc1cc(-c2ccc(Cl)c(Cl)c2)c(C(=O)O)c(=O)n1-c1ccc(Cl)cc1F [Compound 13, 1-(4-chloro-2-fluoro-phenyl)-4-(3,4-dichlorophenyl)-6-methyl-2-oxo-pyridine-3-carboxylic acid] | 0 | 0 | 1 (1=1-20%) | 3 (3=41-60%) | 2 (2=21-40%) | 0 | 0 | 2 (2=21-40%) | 2 (2=21-40%) | 0 | 2 (2=21-40%) | 0 |
| Cc1cc(-c2ccc(Cl)c(Cl)c2)c(C(=O)O)c(=O)n1-c1cccc(C(F)(F)F)c1 [Compound 15, 4-(3,4-dichlorophenyl)-6-methyl-2-oxo-1-[3-(trifluoromethyl)phenyl]pyridine-3-carboxylic acid] | 2 (2=21-40%) | 1 (1=1-20%) | 1 (1=1-20%) | 4 (4=61-80%) | 4 (4=61-80%) | 1 (1=1-20%) | 0 | 4 (4=61-80%) | 0 | 0 | 4 (4=61-80%) | 2 (2=21-40%) |
| Cc1cc(-c2ccc(Cl)c(Cl)c2)c(C(=O)O)c(=O)n1-c1ccc(F)cc1 [Compound 16, 4-(3,4-dichlorophenyl)-1-(4-fluorophenyl)-6-methyl-2-oxo-pyridine-3-carboxylic acid] | 2 (2=21-40%) | 1 (1=1-20%) | 1 (1=1-20%) | 2 (2=21-40%) | 1 (1=1-20%) | 1 (1=1-20%) | 0 | 0 | 0 | 0 | 0 | 0 |

From patent US20250289787A1, “HERBICIDAL 2-OXO-NICOTINIC ACID DERIVATIVES” (SYNGENTA CROP PROTECTION AG, priority 2022, published 2025)
